Assay results as given in article PMC6018746, “Activation of the p53-MDM4 regulatory axis defines the anti-tumour response to PRMT5 inhibition through its role in regulating cellular splicing” (Scientific Reports, 2018).
Like-named read-outs stand apart in the source and are kept apart here.

Test system: panel of 240 cancer cell lines
Assay: 10-day growth/death assay (Eurofins panel)
Format: cell-based
Details: Homo sapiens, read-out: gIC50
Description: To further develop these molecules and to guide clinical strategy, it was necessary to understand sensitivity in preclinical models by assessing the anti-tumour activity of the PRMT5 inhibitors in various cancers. […] Lymphoma, including MCL and diffuse large B-cell lymphoma (DLBCL), breast, and multiple myeloma cell lines were among the most sensitive tumour types and had gIC50 values in the low nM range (Fig. 1B). […] Since lymphoma and breast cancer cell lines were among the most sensitive in the proliferation screens, subsequent mechanistic studies were performed in these tumour types.

O=C(NC[C@H](O)CN1CCc2ccccc2C1)c1ccnc(NC2CCC2)c1 [GSK3203591]
IC50 (22Rv1, 22Rv1): 2480 nM
IC50 (639-V): 342 nM
IC50 (647-V): 62 nM
IC50 (769-P): 203 nM
IC50 (786-0, 786-O): 20.3 nM
IC50 (5637.000): 285 nM
IC50 (A7): 36.7 nM
IC50 (A101D): 190 nM
IC50 (A 172, A172): 29.6 nM
IC50 (A204, A204): 223 nM
IC50 (A498, A498): 50.7 nM
IC50 (A549, A549): 80.9 nM
IC50 (A673, A-673): 119 nM
IC50 (A-375, A375): 79.6 nM
IC50 (A-431, A431): 549 nM
IC50 (ACHN): 38.6 nM
IC50 (AGS): 2030 nM
IC50 (AN3-CA, AN3 CA): 254 nM
IC50 (ARH-77, ARH-77): 44.4 nM
IC50 (ASPC1, AsPC-1): 302 nM
IC50 (AU565, AU565): 14.6 nM
IC50 (BC1, BC-1): 69.6 nM
IC50 (BE(2)-C, BE(2)C): 803 nM
IC50 (BFTC-905, BFTC-905): 259 nM
IC50 (BPH-1, BPH1): 718 nM
IC50 (BT-20, BT20): 2280 nM
IC50 (BT-474, BT474): 172 nM
IC50 (BT-549, BT-549): 59.4 nM
IC50 (BV-173, BV-173): 10.6 nM
IC50 (BXPC-3, BxPC-3): 160 nM
IC50 (BeWo): 1090 nM
IC50 (C32, C32): 14.1 nM
IC50 (C-4-II, C-4 II): 266 nM
IC50 (C-4I): 139 nM
IC50 (C-33-A, C-33A): 228 nM
IC50 (CAKI-1, Caki-1): 68.8 nM
IC50 (CAKI-2, Caki-2): 114 nM
IC50 (CAL-27, Cal 27): 103 nM
IC50 (CAL-62, CAL-62): 253 nM
IC50 (CAMA-1, CAMA-1): 78.9 nM
IC50 (CAPAN-1, Capan-1): 370 nM
IC50 (CCF-STTG1, CCF-STTG1): 115 nM
IC50 (CCRF-CEM, CCRFCEM): 3140 nM
IC50 (CEM/C1, CEM-C1): 7.92 nM
IC50 (CFPAC-1, CFPAC-1): 52.3 nM
IC50 (CGTH-W-1, CGTH-W-1): 82.2 nM
IC50 (CHL-1, CHL-1): 247 nM
IC50 (CHP-212, CHP-212): 24 nM
IC50 (CML-T1, CML-T1): 16.1 nM
IC50 (COLO 201, Colo 201): 49.6 nM
IC50 (COLO 205, Colo 205): > 10000 nM
IC50 (COLO 320DM): 82.5 nM
IC50 (COLO-320-HSR, Colo 320 HSR): 80.3 nM
IC50 (COLO-829, COLO 829): 54.4 nM
IC50 (COR-L23, COR-L23): 147 nM
IC50 (COR-L105, COR-L105): 314 nM
IC50 (CRO-AP2, CRO-AP2): 250 nM
IC50 (Calu-1, Calu1): 3050 nM
IC50 (Caov-3, CaOV3): 298 nM
IC50 (Capan-2, Capan-2): 69.7 nM
IC50 (ChaGo-K-1, ChaGoK1): 1190 nM
IC50 (D283 Med): 23.5 nM
IC50 (DB): 2.51 nM
IC50 (DBTRG-05MG): 156 nM
IC50 (DK-MG): 89.5 nM
IC50 (DLD-1, DLD-1): 134 nM
IC50 (DMS-114, DMS114): 1010 nM
IC50 (DOHH-2, DOHH-2): 157 nM
IC50 (Daoy): 270 nM
IC50 (Daudi): 142 nM
IC50 (Detroit 562, Detroit 562): 104 nM
IC50 (DoTc2-4510, DoTc2 4510): 95.8 nM
IC50 (EB-3, EB-3): 299 nM
IC50 (EFM-19, EFM-19): 69.5 nM
IC50 (EM-2, EM-2): 94 nM
IC50 (ES-2, ES-2): 106 nM
IC50 (FaDu): 15.4 nM
IC50 (G-401, G-401): 38.4 nM
IC50 (G-402, G-402): 99.7 nM
IC50 (H4): 151 nM
IC50 (HCT-8, HCT-8): 430 nM
IC50 (HCT-15, HCT-15): 68.4 nM
IC50 (HCT-116, HCT-116): 166 nM
IC50 (HEC-1-A): 2440 nM
IC50 (HEL 92.1.7, HEL-92-1-7): 9.02 nM
IC50 (HLE): 174 nM
IC50 (HLF): 87.7 nM
IC50 (HMCB): 666 nM
IC50 (HOS): 223 nM
IC50 (HPAF-II): 154 nM
IC50 (HT1197, HT-1197): 98.9 nM
IC50 (HT-3, HT-3): > 10000 nM
IC50 (HT-29, HT-29): 95.2 nM
IC50 (HT-1080, HT-1080): 53.5 nM
IC50 (HT-1376, HT1376): 297 nM
IC50 (HT): 206 nM
IC50 (HUH-6-clone5, HUH-6 Clone 5): 361 nM
IC50 (HeLa): 230 nM
IC50 (HepG2, HepG2): 214 nM
IC50 (Hs 294T): 12.3 nM
IC50 (Hs 695T): 602 nM
IC50 (Hs746T, HS 746T): 171 nM
IC50 (Hs766T): 1120 nM
IC50 (Hs-578T, Hs 578T): 947 nM
IC50 (HuCCT-1, HuCCT1): 225 nM
IC50 (HuP-T4, HuP-T4): 84.9 nM
IC50 (J82, J82): 83.1 nM
IC50 (J-RT3-T3-5, J-RT3-T3-5): 43.2 nM
IC50 (JAR): 485 nM
IC50 (JEG-3, JEG-3): 216 nM
IC50 (Jurkat): 130 nM
IC50 (K562, K562): 146 nM
IC50 (KATO III): 16.7 nM
IC50 (KHOS-240S): 124 nM
IC50 (KLE): > 10000 nM
IC50 (KPL-1, KPL-1): 1330 nM
IC50 (L-428, L-428): 330 nM
IC50 (LNCaP): 2930 nM
IC50 (LS174T, LS-174T): 170 nM
IC50 (MC-IXC): 615 nM
IC50 (MCF7, MCF7): 10.9 nM
IC50 (MDA-MB-231, MDA MB 231): 56.7 nM
IC50 (MDA-MB-436, MDA-MB-436): 49.7 nM
IC50 (MDA-MB-453, MDA MB 453): 64.5 nM
IC50 (MDA-MB-468, MDA MB 468): 4.83 nM
IC50 (MEG-01, MEG01): > 10000 nM
IC50 (MES-SA): 72 nM
IC50 (MG-63, MG-63): 96 nM
IC50 (MHH-PREB-1, MHH-PREB-1): > 10000 nM
IC50 (MIA PaCa-2, Mia PaCa-2): 158 nM
IC50 (MOLT-3, MOLT-3): 217 nM
IC50 (MOLT-16, MOLT-16): 54.2 nM
IC50 (MT-3, MT-3): 46.4 nM
IC50 (MV4-11, MV-4-11): 65.8 nM
IC50 (MX1, MX1): 294 nM
IC50 (Malme-3M, MALME3M): 265 nM
IC50 (MeWo): 249 nM
IC50 (NALM-6, NALM-6): 110 nM
IC50 (NCI-H69, NCI-H69): 144 nM
IC50 (NCI-H295R): > 10000 nM
IC50 (NCI-H441, NCIH441): 556 nM
IC50 (NCI-H446, NCIH446): 570 nM
IC50 (NCI-H460, NCI-H460): 224 nM
IC50 (NCI-H508, NCI-H508): 307 nM
IC50 (NCI-H520, NCI-H520): 15.6 nM
IC50 (NCI-H596, NCI-H596): 188 nM
IC50 (NCI-H661, NCI-H661): 152 nM
IC50 (NCI-H747, NCI-H747): 2580 nM
IC50 (OCUG-1, OCUG-1): 379 nM
IC50 (OE19, OE19): 98 nM
IC50 (OE33, OE33): 231 nM
IC50 (OVCAR-3, OVCAR3): 51.4 nM
IC50 (PANC-1, PANC-1): 165 nM
IC50 (PC-3, PC-3): 873 nM
IC50 (RD): 639 nM
IC50 (RKO): 772 nM
IC50 (RKOAS451, RKO-AS45-1): 113 nM
IC50 (RKOE6, RKOE6): 210 nM
IC50 (RL95-2, RL95-2): 218 nM
IC50 (RPMI-6666, RPMI 6666): 748 nM
IC50 (RPMI-7951, RPMI-7951): 44.2 nM
IC50 (RPMI-8226, RPMI 8226): 58.4 nM
IC50 (Raji): 24.5 nM
IC50 (Ramos, Ramos (RA 1)): 546 nM
IC50 (SAOS-2, SaOS2): 48.2 nM
IC50 (SCC-4, SCC-4): 286 nM
IC50 (SCC-9, SCC-9): 747 nM
IC50 (SCC-25, SCC-25): 273 nM
IC50 (SCaBER): 123 nM
IC50 (SH-4, SH-4): 75.2 nM
IC50 (SJRH30, SJRH30): 472 nM
IC50 (SK-BR-3, SK-BR-3): 76.4 nM
IC50 (SK-LMS-1, SK-LMS-1): 113 nM
IC50 (SK-MEL3, SK-MEL-3): 181 nM
IC50 (SK-MEL-1, SK-MEL-1): 38.7 nM
IC50 (SK-MEL-28, SK-MEL-28): 239 nM
IC50 (SK-MES-1, SKMES1): 807 nM
IC50 (SK-N-AS): 31.9 nM
IC50 (SK-N-DZ): 257 nM
IC50 (SK-N-FI): 308 nM
IC50 (SK-NEP-1, SK-NEP-1): 264 nM
IC50 (SK-OV-3, SKOV3): 52.6 nM
IC50 (SK-UT-1, SK-UT-1): 42.1 nM
IC50 (SKO-007, SKO-007): 84.4 nM
IC50 (SNB-19, SNB-19): 223 nM
IC50 (SNU1, SNU-1): 1040 nM
IC50 (SNU-16, SNU-16): 34.4 nM
IC50 (SNU-423, SNU-423): 66 nM
IC50 (SR): 275 nM
IC50 (ST486, ST486): 101 nM
IC50 (SU.86.86, SU.86.86): 934 nM
IC50 (SW13, SW-13): 211 nM
IC50 (SW48, SW48): > 10000 nM
IC50 (SW480, SW480): 413 nM
IC50 (SW579, SW579): 83.3 nM
IC50 (SW684, SW684): 1170 nM
IC50 (SW837, SW837): 102 nM
IC50 (SW872, SW872): 54 nM
IC50 (SW900, SW900): 3250 nM
IC50 (SW948, SW948): 120 nM
IC50 (SW 954, SW954): > 10000 nM
IC50 (SW1088, SW1088): 40.5 nM
IC50 (SW1353, SW1353): 129 nM
IC50 (SW1417, SW1417): 773 nM
IC50 (SW1463, SW1463): 770 nM
IC50 (SW1783, SW1783): 389 nM
IC50 (SW-403, SW403): 153 nM
IC50 (SW-620, SW620): 5640 nM
IC50 (SiHa): 2510 nM
IC50 (T47D): 52.4 nM
IC50 (T98G): 27.3 nM
IC50 (T-24, T24): 449 nM
IC50 (TCC-SUP, TCCSUP): 235 nM
IC50 (THP-1, Thp1): 80.5 nM
IC50 (U138-MG, U-138MG): 43.3 nM
IC50 (U266B1): 78.5 nM
IC50 (U-87 MG): 67.6 nM
IC50 (UMUC3, UM-UC-3): 105 nM
IC50 (WI-38, Wi38): 18.5 nM
IC50 (WiDr): 505 nM
IC50 (Y79, Y79): 113 nM
IC50 (YAPC): 168 nM
